The subject of data set [1] is MCF-7 (breast adenocarcinoma) cells. Put plainly: SRB cell growth inhibition assay, MCF-7. Conditions: mean ± standard deviation. The data set is classed as cell-based, human.
The nature of data set [2]: MTT cytotoxicity in THP-1-derived macrophages. The class given is cell-based, human. The conditions noted are these: human, THP-1-derived macrophages (PMA-differentiated); MTT, 72 h, tested 100 to 12.5 μM; read-out: CC50 Interval in THP-1-Derived Macrophages. Summed up:
(§1)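 THP-1 cells differentiated into macrophages with 40 ng/mL PMA for 24 h plus 24 h in fresh medium, then exposed to compounds at 100 to 12.5 μM for 72 h at 37 °C, 5% CO2. Viability by MTT (0.5 mg/mL, 4 h), absorbance 570 nm; CC50 by non-linear regression, at least three independent experiments.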

The subject of data set [3] is THP-1-derived macrophages. The experiment in a line: MTT cytotoxicity in THP-1-derived macrophages. The data set is classed as cell-based, human. Summed up:
as §1

Data set [4] has as its system L. infantum MHOM/MA/67/ITMAP-263 promastigotes. Put plainly: Resazurin-based assay against L. infantum promastigotes. The data set is classed as cell-based, Leishmania infantum. Conditions: Leishmania infantum, 72 h, dose-response. Background: Alamar Blue is a resazurin reagent that responds to reducing activity.
The nature of data set [5]: SRB assay, toxicity in non-tumor PLP2 cells. The data set is classed as cell-based, pig. Conditions: PLP2 primary pig liver cells (non-tumor); non-tumor primary pig liver cells, SRB assay, 72 h, mean ± standard deviation.
The test system of data set [6] is NCI-H460 (non-small cell lung cancer) cells. Put plainly: SRB cell growth inhibition assay, NCI-H460. The data set is classed as cell-based. Conditions: Homo sapiens, 72 h, mean ± standard deviation.

`COC(=O)c1sc2nccnc2c1C#Cc1ccccn1` [Compound 2f, Methyl 7-(pyridin-2-ylethynyl)thieno[2,3-b]pyrazine-6-carboxylate]: the GI50 (usually the concentration that inhibits growth by half) was 4.08 ± 0.27 µM in data set [1] (72 h); < 5 µM in data set [1] (Homo sapiens, MCF7, 72 h); 9.33 ± 4.21 µM in data set [6]. The CC50 (in general, the concentration that lowers cell viability or growth by half) at 72 h in data set [2] was 25 to 100 µM. Moreover, the “cytotoxicity in THP-1-derived macrophages (in words)” value in data set [3] is listed as “some level of toxicity”. Moreover, the midpoint of inhibition in data set [4], the IC50, lay at 16 µM. In data set [5], growth was halved (GI50 at 72 h) at 57.9 ± 4.31 µM.

Turning to `O=c1oc(-c2ccccn2)cc2c1sc1nccnc12` [Compound 3f, 8-(Pyridin-2-yl)-6H-pyrano[4′,3′:4,5]thieno[2,3-b]pyrazin-6-one], the GI50 in data set [1] (Homo sapiens, MCF7, 72 h) is 59.3 ± 2.45 µM; in data set [6], 61.2 ± 4.17 µM. The “cytotoxicity in THP-1-derived macrophages (in words)” value in data set [3] is recorded as “some degree of cytotoxicity”. For the same compound, the GI50 at 72 h in data set [5] was > 125 µM.

These data come from publication PMC12073635, “Synthesis of Tricyclic and Tetracyclic Lactone Derivatives of Thieno[2,3-b]pyrazine or Thieno[2,3-b]quinoline: Preliminary Antitumor and Antiparasitic Activity Evaluation” (Molecules, 2025).
